Laboratory results as given in patent publication US9181255B2, “Fused heteroaromatic pyrrolidinones as SYK inhibitors” (Takeda Pharmaceutical Company Limited, priority 2009, dated 2015).
Where a name gives a salt, the structure may show the parent alone.

These molecules were tested against SYK (Homo sapiens, UniProt P43405) (assay: SYK inhibition assay: SYK-mediated phosphorylation of FAM-labeled substrate (Caliper microfluidic)). Details: read-out: SYK Inhibition (pIC50) (converted).
Format: biochemical

Compound	IC50 [nM]
Cn1cc(-c2nc(N[C@@H]3CCCC[C@@H]3N)c(Br)c3c2C(=O)NC3)cn1 [Example 99, 6-((1R,2S)-2-Aminocyclohexylamino)-7-bromo-4-(1-methyl-1H-pyrazol-4-yl)-1H-pyrrolo[3,4-c]pyridin-3(2H)-one]	3.16
Nc1ncc(-c2nc(N[C@@H]3CCCC[C@@H]3N)c(F)c3c2C(=O)NC3)s1 [Example 112, 6-((1R,2S)-2-Aminocyclohexylamino)-4-(2-aminothiazol-5-yl)-7-fluoro-1H-pyrrolo[3,4-c]pyridin-3(2H)-one]	2
Cn1cc(-c2nc(N[C@@H]3CCOC[C@@H]3N)c(F)c3c2C(=O)NC3)cn1 [Example 65, 6-((3R,4R)-3-Aminotetrahydro-2H-pyran-4-ylamino)-7-fluoro-4-(1-methyl-1H-pyrazol-4-yl)-1H-pyrrolo[3,4-c]pyridin-3(2H)-one]	10
N[C@H]1CCCC[C@H]1Nc1nc(-c2cnn(C(F)F)c2)c2c(c1F)CNC2=O [Example 62, 6-((1R,2S)-2-Aminocyclohexylamino)-4-(1-(difluoromethyl)-1H-pyrazol-4-yl)-7-fluoro-1H-pyrrolo[3,4-c]pyridin-3(2H)-one]	10
CC(C)Cn1cc(-c2nc(N[C@@H]3CCCC[C@@H]3N)nc3c2C(=O)NC3)cn1 [Example 15, 2-((1R,2S)-2-Aminocyclohexylamino)-4-(1-isobutyl-1H-pyrazol-4-yl)-6,7-dihydro-5H-pyrrolo[3,4-c]pyrimidin-5-one]	1000
Cc1cccc(Nc2nc(NCC(N)=O)nc3c2C(=O)NC3)c1 [Example 42, 2-(5-oxo-4-(m-tolylamino)-6,7-dihydro-5H-pyrrolo[3,4-d]pyrimidin-2-ylamino)acetamide]	158
Cc1ncc(-c2nc(N[C@@H]3CCOC[C@@H]3N)c(F)c3c2C(=O)NC3)s1 [Example 133, 6-((3R,4R)-3-Aminotetrahydro-2H-pyran-4-ylamino)-7-fluoro-4-(2-methylthiazol-5-yl)-1H-pyrrolo[3,4-c]pyridin-3(2H)-one]	25.1
N[C@H]1CCCC[C@H]1Nc1cc2c(c(-c3cnn(C4CC4)c3)n1)C(=O)NC2 [Example 61]	63.1
N[C@H]1CCCC[C@H]1Nc1nc(-c2cccs2)c2c(c1F)CNC2=O [Example 129, 6-((1R,2S)-2-Aminocyclohexylamino)-7-fluoro-4-(thiophen-2-yl)-1H-pyrrolo[3,4-c]pyridin-3(2H)-one]	3.98
CC(C)C[C@@H](Nc1nc(-c2coc3ccccc23)c2c(c1F)CNC2=O)C(N)=O [Example 73, (R)-2-(4-(Benzofuran-3-yl)-7-fluoro-3-oxo-2,3-dihydro-1H-pyrrolo[3,4-c]pyridin-6-ylamino)-4-methylpentanamide]	7.94
Cc1csc(-c2nc(N[C@@H]3CCCC[C@@H]3N)c(F)c3c2C(=O)NC3)c1 [Example 105, 6-((1R,2S)-2-Aminocyclohexylamino)-7-fluoro-4-(4-methylthiophen-2-yl)-1H-pyrrolo[3,4-c]pyridin-3(2H)-one]	1
Cc1cccc(Nc2nc(N3CCC(N)C3)nc3c2C(=O)NC3)c1 (stereo not drawn) [Example 45, 2-(3-Aminopyrrolidin-1-yl)-4-(m-tolylamino)-6,7-dihydro-5H-pyrrolo[3,4-d]pyrimidin-5-one]	794
Cc1cccc(Nc2nc(N[C@@H]3CCCC[C@@H]3N)nc3c2C(=O)NC32CC2)c1 [Example 39, 2′-((1R,2S)-2-Aminocyclohexylamino)-4′-(m-tolylamino)spiro[cyclopropane-1,7′-pyrrolo[3,4-d]pyrimidin]-5′(6′H)-one]	3160
Cc1cc(Nc2nc(N[C@@H]3CCCC[C@@H]3N)cc3c2C(=O)NC3)ccc1F [Example 24, 6-((1R,2S)-2-Aminocyclohexylamino)-4-(4-fluoro-3-methylphenylamino)-1H-pyrrolo[3,4-c]pyridin-3(2H)-one]	25.1
N[C@H]1COCC[C@H]1Nc1nc(-c2coc3ccccc23)c2c(c1F)CNC2=O [Example 94, 6-((3R,4R)-3-Aminotetrahydro-2H-pyran-4-ylamino)-4-(benzofuran-3-yl)-7-fluoro-1H-pyrrolo[3,4-c]pyridin-3(2H)-one]	3.16
N[C@H]1CCCC[C@H]1Nc1nc2c(c(Nc3ccc4cn[nH]c4c3)n1)C(=O)NC2 [Example 4, 4-(1H-Indazol-6-ylamino)-2-((1R,2S)-2-aminocyclohexylamino)-6,7-dihydro-5H-pyrrolo[3,4-c]pyrimidin-5-one]	15.8
CN[C@H]1CCCC[C@H]1Nc1nc2c(c(Nc3cccc(C)c3)n1)C(=O)NC2 [Example 38, 2-((1R,2S)-2-(Methylamino)cyclohexylamino)-4-(m-tolylamino)-6,7-dihydro-5H-pyrrolo[3,4-d]pyrimidin-5-one]	631
N[C@H]1CCCC[C@H]1Nc1nc2c(c(-c3ccccc3)n1)C(=O)NC2 [Example 16, 2-((1R,2S)-2-Aminocyclohexylamino)-4-phenyl-6,7-dihydro-5H-pyrrolo[3,4-d]pyrimidin-5-one]	3160

Compound	IC50 [nM]
N[C@H]1CCCC[C@H]1Nc1nc2c(c(-c3ccn[nH]3)n1)C(=O)NC2 [Example 48, 2-((1R,2S)-2-Aminocyclohexylamino)-4-(1H-pyrazol-5-yl)-6,7-dihydro-5H-pyrrolo[3,4-c]pyrimidin-5-one]	794
N[C@H]1CCCC[C@H]1Nc1nc(-c2cnn(C3CC3)c2)c2c(c1F)CNC2=O [Example 63, 6-((1R,2S)-2-Aminocyclohexylamino)-4-(1-cyclopropyl-1H-pyrazol-4-yl)-7-fluoro-1H-pyrrolo[3,4-c]pyridin-3(2H)-one]	7.94
N[C@H]1CCCC[C@H]1Nc1nc2c(c(Nc3cccc(Cl)c3)n1)C(=O)NC2 [Example 3, 2-((1R,2S)-2-Aminocyclohexylamino)-4-(3-chlorophenylamino)-6,7-dihydro-5H-pyrrolo[3,4-d]pyrimidin-5-one]	25.1
Cc1csc(-c2nc(N[C@H](CC(C)C)C(N)=O)c(F)c3c2C(=O)NC3)c1 [Example 109, (R)-2-(7-Fluoro-4-(4-methylthiophen-2-yl)-3-oxo-2,3-dihydro-1H-pyrrolo[3,4-c]pyridin-6-ylamino)-4-methylpentanamide]	3.16
N[C@H]1CCCC[C@H]1Nc1nc2c(c(Nc3cccc(F)c3)n1)C(=O)NC2 [Example 2, 2-((1R,2S)-2-Aminocyclohexylamino)-4-(3-fluorophenylamino)-6,7-dihydro-5H-pyrrolo[3,4-c]pyrimidin-5-one]	126
Cc1cccc(Nc2nc(N[C@@H]3CCCC[C@@H]3O)nc3c2C(=O)NC3)c1 (relative stereo) [Example 11, Cis-2-(2-Hydroxycyclohexylamino)-4-(m-tolylamino)-6,7-dihydro-5H-pyrrolo[3,4-d]pyrimidin-5-one]	1260
Cc1cc(-c2nc(N[C@@H]3CCOC[C@@H]3N)c(F)c3c2C(=O)NC3)sn1 [Example 132, 6-((3R,4R)-3-Aminotetrahydro-2H-pyran-4-ylamino)-7-fluoro-4-(3-methylisothiazol-5-yl)-1H-pyrrolo[3,4-c]pyridin-3(2H)-one]	3.98
CS(=O)(=O)c1cccc(Nc2nc(N[C@@H]3CCC[C@@H]3N)cc3c2C(=O)NC3)c1 [Example 34, 6-((1R,2S)-2-Aminocyclopentylamino)-4-(3-(methylsulfonyl)phenylamino)-1H-pyrrolo[3,4-c]pyridin-3(2H)-one (HCl salt)]	316
CC(C)C[C@@H](Nc1nc(-c2ccns2)c2c(c1F)CNC2=O)C(N)=O [Example 119, (R)-2-(7-Fluoro-4-(isothiazol-5-yl)-3-oxo-2,3-dihydro-1H-pyrrolo[3,4-c]pyridin-6-ylamino)-4-methylpentanamide]	15.8
CC(C)C[C@@H](Nc1cc2c(c(Nc3cccc(S(C)(=O)=O)c3)n1)C(=O)NC2)C(N)=O [Example 35, (R)-4-Methyl-2-(4-(3-(methylsulfonyl)phenylamino)-3-oxo-2,3-dihydro-1H-pyrrolo[3,4-c]pyridin-6-ylamino)pentanamide]	50.1
N[C@H]1COCC[C@H]1Nc1nc(-c2cnn(C3CC3)c2)c2c(c1F)CNC2=O [Example 136, 6-((3R,4R)-3-Aminotetrahydro-2H-pyran-4-ylamino)-4-(1-cyclopropyl-1H-pyrazol-4-yl)-7-fluoro-1H-pyrrolo[3,4-c]pyridin-3(2H)-one]	31.6
Cc1cccc(Nc2nc(-c3cnn(C)c3)nc3c2C(=O)NC3)c1 [Example 7, 2-(1-Methyl-1H-pyrazol-4-yl)-4-(m-tolylamino)-6,7-dihydro-5H-pyrrolo[3,4-c]pyrimidin-5-one]	1000
CC(C)C[C@@H](Nc1nc(-c2ccco2)c2c(c1F)CNC2=O)C(N)=O [Example 113, (R)-2-(7-Fluoro-4-(furan-2-yl)-3-oxo-2,3-dihydro-1H-pyrrolo[3,4-c]pyridin-6-ylamino)-4-methylpentanamide]	200
Cc1cccc(Nc2nc(N[C@H]3COCC[C@H]3N)cc3c2C(=O)NC3)c1 [Example 86, 6-((3R,4R)-4-Aminotetrahydro-2H-pyran-3-ylamino)-4-(m-tolylamino)-1H-pyrrolo[3,4-c]pyridin-3(2H)-one]	2510
CC(C)C[C@@H](Nc1nc(-c2cnn(C(F)F)c2)c2c(c1F)CNC2=O)C(N)=O [Example 71, (R)-2-(4-(1-(Difluoromethyl)-1H-pyrazol-4-yl)-7-fluoro-3-oxo-2,3-dihydro-1H-pyrrolo[3,4-c]pyridin-6-ylamino)-4-methylpentanamide]	7.94
Cc1cccc(Nc2nc(N[C@@H]3CCCC[C@@H]3N)c(I)c3c2C(=O)NC3)c1 [Example 81, 6-((1R,2S)-2-Aminocyclohexylamino)-7-iodo-4-(m-tolylamino)-1H-pyrrolo[3,4-c]pyridin-3(2H)-one]	3.16
Cc1csc(-c2nc(N[C@@H]3CCOC[C@@H]3N)c(F)c3c2C(=O)NC3)c1 [Example 104, 6-((3R,4R)-3-Aminotetrahydro-2H-pyran-4-ylamino)-7-fluoro-4-(4-methylthiophen-2-yl)-1H-pyrrolo[3,4-c]pyridin-3(2H)-one]	2
CC(C)C[C@@H](Nc1cc2c(c(-c3cnn(C)c3)n1)C(=O)NC2)C(N)=O [Example 36, (R)-4-Methyl-2-(4-(1-methyl-1H-pyrazol-4-yl)-3-oxo-2,3-dihydro-1H-pyrrolo[3,4-c]pyridin-6-ylamino)pentanamide]	25.1
